Measured values published in the NIST ThermoML archive (doi:10.1016/j.jct.2014.04.016).

Conditions: for electrical conductivity / viscosity / mass density: 101.33 kPa, Liquid; for electrical conductivity: Alternating current cell with electrodes; for viscosity: Concentric cylinders viscometry; for mass density: Vibrating tube method

CCCCCCCCOS(=O)(=O)[O-].CCn1cc[n+](C)c1 [1-ethyl-3-methylimidazolium octyl sulfate]
Conditions | electrical conductivity [S/m] | mass density [kg/m3] | viscosity [mPa·s]
258.1 K | 0.002 | – | –
263.1 K | 0.003 | – | –
268.1 K | 0.005 | – | –
273.1 K | 0.008 | 1110.8 | 4561
278.1 K | 0.012 | 1107.4 | 2822
283.1 K | 0.017 | 1103.9 | 1815
288.1 K | 0.025 | 1100.5 | 1207
293.1 K | 0.034 | 1097.1 | 826.7
298.1 K | 0.046 | 1093.7 | 581
303.1 K | 0.06 | 1090.2 | 421.7
308.1 K | 0.078 | 1086.9 | 311.7
313.1 K | 0.098 | 1083.6 | 233.3
318.1 K | 0.124 | 1080.3 | 179.1
323.1 K | 0.153 | 1077.1 | 139.8
328.1 K | 0.193 | 1073.9 | 110.9
333.1 K | 0.232 | 1070.7 | 89.14
338.1 K | 0.279 | 1067.5 | 72.56
343.1 K | 0.329 | 1064.4 | 59.81
348.1 K | 0.385 | 1061.2 | 49.83
353.1 K | 0.447 | 1058.1 | 41.94
358.1 K | 0.514 | 1054.9 | 35.63
363.1 K | 0.584 | 1051.8 | 30.53
368.1 K | 0.661 | 1048.8 | 26.36
373.1 K | 0.731 | 1045.7 | 22.92

Conditions | Normal melting temperature [°C]
Crystal, visual observation | 10
